Assay results reported in ChEMBL document CHEMBL5370683, “Peptide-to-Small Molecule: Discovery of Non-Covalent, Active-Site Inhibitors of β-Herpesvirus Proteases” (ACS Med Chem Lett, 2023).
Peptide text beside a SMILES is read from it.

Assays:
[1] = Inhibition of N-terminal 6 His-tagged HHV6 protease (2 to 230 residues) expressed in Escherichia coli BL21 cells using 5FAM-KPSILNASLTPETVKK as peptide substrate incubated for 3 hrs by fluorescence based analysis; set-up: species or system Human betaherpesvirus 6
[2] = Cytotoxicity against HFF cells assessed as inhibition in cell viability incubated for 5 days by luminescence based analysis; format: toxicity; conditions: human, time 5 day
[3] = Inhibition of amino terminal GST tagged HCMV protease (1 to 256 residues) expressed in Escherichia coli BL21 (DE3) cells using 5-carboxyfluorescein [FAM]-RGVVNASSRLAK as peptide substrate incubated for 3 hrs by fluorescence based analysis; set-up: species or system Human betaherpesvirus 5
Human betaherpesvirus 5 [4] = test: Antiviral activity against HCMV infected in HFF cells assessed as reduction in viral replication; format: functional, organism-based; conditions: Human betaherpesvirus 5, HFF
Human betaherpesvirus 5 [5] = test: Inhibition of amino terminal GST tagged HCMV protease (1 to 256 residues) expressed in Escherichia coli BL21 (DE3) cells using 5-carboxyfluorescein [FAM]-RGVVNASSRLAK as peptide substrate at 99 uM incubated for 3 hrs by fluorescence based analysis relative to control
Human betaherpesvirus 6 = test: Inhibition of N-terminal 6 His-tagged HHV6 protease (2 to 230 residues) expressed in Escherichia coli BL21 cells using 5FAM-KPSILNASLTPETVKK as peptide substrate at 99 uM incubated for 3 hrs by fluorescence based analysis relative to control
[6] = Inhibition of amino terminal GST tagged HCMV protease F1A mutant (1 to 256 residues) expressed in Escherichia coli BL21 (DE3) cells using 5-carboxyfluorescein [FAM]-RGVVNASSRLAK as peptide substrate incubated for 3 hrs by fluorescence based analysis; set-up: species or system Human betaherpesvirus 5
[7] = Inhibition of N-terminal 6 His-tagged HHV6 protease F1A mutant (2 to 230 residues) expressed in Escherichia coli BL21 cells using 5FAM-KPSILNASLTPETVKK as peptide substrate incubated for 3 hrs by fluorescence based analysis; set-up: species or system Human betaherpesvirus 6
[8] = Inhibition of amino terminal GST tagged HCMV protease I2A mutant (1 to 256 residues) expressed in Escherichia coli BL21 (DE3) cells using 5-carboxyfluorescein [FAM]-RGVVNASSRLAK as peptide substrate incubated for 3 hrs by fluorescence based analysis; set-up: species or system Human betaherpesvirus 5
[9] = Inhibition of N-terminal 6 His-tagged HHV6 protease […] mutant (2 to 230 residues) expressed in Escherichia coli BL21 cells using 5FAM-KPSILNASLTPETVKK as peptide substrate incubated for 3 hrs by fluorescence based analysis; set-up: species or system Human betaherpesvirus 6
[10] = Inhibition of amino terminal GST tagged HCMV protease T3A mutant (1 to 256 residues) expressed in Escherichia coli BL21 (DE3) cells using 5-carboxyfluorescein [FAM]-RGVVNASSRLAK as peptide substrate incubated for 3 hrs by fluorescence based analysis; set-up: species or system Human betaherpesvirus 5
[11] = Inhibition of N-terminal 6 His-tagged HHV6 protease T3A mutant (2 to 230 residues) expressed in Escherichia coli BL21 cells using 5FAM-KPSILNASLTPETVKK as peptide substrate incubated for 3 hrs by fluorescence based analysis; set-up: species or system Human betaherpesvirus 6
[12] = Inhibition of N-terminal 6 His-tagged HHV6 protease H5A mutant (2 to 230 residues) expressed in Escherichia coli BL21 cells using 5FAM-KPSILNASLTPETVKK as peptide substrate incubated for 3 hrs by fluorescence based analysis; set-up: species or system Human betaherpesvirus 6
[13] = Inhibition of amino terminal GST tagged HCMV protease H5A mutant (1 to 256 residues) expressed in Escherichia coli BL21 (DE3) cells using 5-carboxyfluorescein [FAM]-RGVVNASSRLAK as peptide substrate incubated for 3 hrs by fluorescence based analysis; set-up: species or system Human betaherpesvirus 5
[14] = Inhibition of amino terminal GST tagged HCMV protease Y6A mutant (1 to 256 residues) expressed in Escherichia coli BL21 (DE3) cells using 5-carboxyfluorescein [FAM]-RGVVNASSRLAK as peptide substrate incubated for 3 hrs by fluorescence based analysis; set-up: species or system Human betaherpesvirus 5
[15] = Inhibition of N-terminal 6 His-tagged HHV6 protease Y6A mutant (2 to 230 residues) expressed in Escherichia coli BL21 cells using 5FAM-KPSILNASLTPETVKK as peptide substrate incubated for 3 hrs by fluorescence based analysis; set-up: species or system Human betaherpesvirus 6
[16] = Inhibition of N-terminal 6 His-tagged HHV6 protease W7A mutant (2 to 230 residues) expressed in Escherichia coli BL21 cells using 5FAM-KPSILNASLTPETVKK as peptide substrate incubated for 3 hrs by fluorescence based analysis; set-up: species or system Human betaherpesvirus 6
[17] = Inhibition of amino terminal GST tagged HCMV protease W7A mutant (1 to 256 residues) expressed in Escherichia coli BL21 (DE3) cells using 5-carboxyfluorescein [FAM]-RGVVNASSRLAK as peptide substrate incubated for 3 hrs by fluorescence based analysis; set-up: species or system Human betaherpesvirus 5
[18] = Inhibition of N-terminal 6 His-tagged HHV6 protease V8A mutant (2 to 230 residues) expressed in Escherichia coli BL21 cells using 5FAM-KPSILNASLTPETVKK as peptide substrate incubated for 3 hrs by fluorescence based analysis; set-up: species or system Human betaherpesvirus 6
[19] = Inhibition of amino terminal GST tagged HCMV protease V8A mutant (1 to 256 residues) expressed in Escherichia coli BL21 (DE3) cells using 5-carboxyfluorescein [FAM]-RGVVNASSRLAK as peptide substrate incubated for 3 hrs by fluorescence based analysis; set-up: species or system Human betaherpesvirus 5

## CN1C(=O)N(c2cccn([C@@H](c3ccccc3)c3cn(C4CCCC4)nc3-c3ccccc3)c2=O)C[C@@H]1C(=O)NC12CCC(CC1)NC2=O
[1]
  IC50: 11 µM
[2]
  CC50 at 120 h: > 25 µM
[3]
  IC50: 9.8 µM
Human betaherpesvirus 5 [4]
  EC50: > 25 µM

## CN1C(=O)N(c2cccn([C@@H](c3ccccc3)c3cn(C4CCCC4)nc3-c3ccccc3)c2=O)C[C@@H]1C(=O)Nc1ccc[nH]c1=O
[1]
  IC50: 18 µM
[2]
  CC50 at 120 h: 53 µM
[3]
  IC50: > 99 µM
Human betaherpesvirus 5 [5]
  inhibition: 32%
Human betaherpesvirus 5 [4]
  EC50: 38 µM

## CN1C(=O)N(c2cccn([C@H](c3ccccc3)c3cn(C4CCCC4)nc3-c3ccccc3)c2=O)C[C@@H]1C(=O)Nc1ccc[nH]c1=O
Human betaherpesvirus 6
  inhibition: 12%
[1]
  IC50: > 99 µM
[2]
  CC50 at 120 h: 89 µM
[3]
  IC50: > 99 µM
Human betaherpesvirus 5 [5]
  inhibition: 2%
Human betaherpesvirus 5 [4]
  EC50: 90 µM

## Cc1ccc([C@H](c2cn(C3CCCC3)nc2-c2ccccc2C)n2cccc(N3C[C@H](C(=O)NC45CCC(CC4)NC5=O)N(C)C3=O)c2=O)cc1
[1]
  IC50: 50 µM
[3]
  IC50: > 99 µM
Human betaherpesvirus 5 [5]
  inhibition: 39%

## CC[C@H](C)[C@H](NC(=O)[C@H](C)NC(C)=O)C(=O)N[C@H](C(=O)NCC(=O)N[C@@H](Cc1c[nH]cn1)C(=O)N[C@@H](Cc1ccc(O)cc1)C(=O)N[C@@H](Cc1c[nH]c2ccccc12)C(=O)N[C@H](C(=O)N[C@@H](CCCNC(=N)N)C(=O)N[C@@H](Cc1ccccc1)C(=O)N[C@@H](CC(C)C)C(=O)N1CCC[C@H]1C(=O)N[C@@H](CS)C(=O)NCC(N)=O)C(C)C)[C@@H](C)O (Ac-AITGHYWVRFLPCG-NH2)
[6]
  IC50: 0.079 µM
[7]
  IC50: 0.14 µM

## CC(=O)N[C@@H](Cc1ccccc1)C(=O)N[C@@H](C)C(=O)N[C@H](C(=O)NCC(=O)N[C@@H](Cc1c[nH]cn1)C(=O)N[C@@H](Cc1ccc(O)cc1)C(=O)N[C@@H](Cc1c[nH]c2ccccc12)C(=O)N[C@H](C(=O)N[C@@H](CCCNC(=N)N)C(=O)N[C@@H](Cc1ccccc1)C(=O)N[C@@H](CC(C)C)C(=O)N1CCC[C@H]1C(=O)N[C@@H](CS)C(=O)NCC(N)=O)C(C)C)[C@@H](C)O (Ac-FATGHYWVRFLPCG-NH2)
[8]
  IC50: 0.184 µM
[9]
  IC50: < 0.076 µM

## CC[C@H](C)[C@H](NC(=O)[C@H](Cc1ccccc1)NC(C)=O)C(=O)N[C@@H](C)C(=O)NCC(=O)N[C@@H](Cc1c[nH]cn1)C(=O)N[C@@H](Cc1ccc(O)cc1)C(=O)N[C@@H](Cc1c[nH]c2ccccc12)C(=O)N[C@H](C(=O)N[C@@H](CCCNC(=N)N)C(=O)N[C@@H](Cc1ccccc1)C(=O)N[C@@H](CC(C)C)C(=O)N1CCC[C@H]1C(=O)N[C@@H](CS)C(=O)NCC(N)=O)C(C)C (Ac-FIAGHYWVRFLPCG-NH2)
[10]
  IC50: 0.157 µM
[11]
  IC50: 0.1 µM

## CC[C@H](C)[C@H](NC(=O)[C@H](Cc1ccccc1)NC(C)=O)C(=O)N[C@H](C(=O)NCC(=O)N[C@@H](C)C(=O)N[C@@H](Cc1ccc(O)cc1)C(=O)N[C@@H](Cc1c[nH]c2ccccc12)C(=O)N[C@H](C(=O)N[C@@H](CCCNC(=N)N)C(=O)N[C@@H](Cc1ccccc1)C(=O)N[C@@H](CC(C)C)C(=O)N1CCC[C@H]1C(=O)N[C@@H](CS)C(=O)NCC(N)=O)C(C)C)[C@@H](C)O (Ac-FITGAYWVRFLPCG-NH2)
[12]
  IC50: 0.086 µM
[13]
  IC50: 0.109 µM

## CC[C@H](C)[C@H](NC(=O)[C@H](Cc1ccccc1)NC(C)=O)C(=O)N[C@H](C(=O)NCC(=O)N[C@@H](Cc1c[nH]cn1)C(=O)N[C@@H](C)C(=O)N[C@@H](Cc1c[nH]c2ccccc12)C(=O)N[C@H](C(=O)N[C@@H](CCCNC(=N)N)C(=O)N[C@@H](Cc1ccccc1)C(=O)N[C@@H](CC(C)C)C(=O)N1CCC[C@H]1C(=O)N[C@@H](CS)C(=O)NCC(N)=O)C(C)C)[C@@H](C)O (Ac-FITGHAWVRFLPCG-NH2)
[14]
  IC50: 0.689 µM
[15]
  IC50: 0.085 µM

## CC[C@H](C)[C@H](NC(=O)[C@H](Cc1ccccc1)NC(C)=O)C(=O)N[C@H](C(=O)NCC(=O)N[C@@H](Cc1c[nH]cn1)C(=O)N[C@@H](Cc1ccc(O)cc1)C(=O)N[C@@H](C)C(=O)N[C@H](C(=O)N[C@@H](CCCNC(=N)N)C(=O)N[C@@H](Cc1ccccc1)C(=O)N[C@@H](CC(C)C)C(=O)N1CCC[C@H]1C(=O)N[C@@H](CS)C(=O)NCC(N)=O)C(C)C)[C@@H](C)O (Ac-FITGHYAVRFLPCG-NH2)
[16]
  IC50: 0.25 µM
[17]
  IC50: 0.811 µM

## CC[C@H](C)[C@H](NC(=O)[C@H](Cc1ccccc1)NC(C)=O)C(=O)N[C@H](C(=O)NCC(=O)N[C@@H](Cc1c[nH]cn1)C(=O)N[C@@H](Cc1ccc(O)cc1)C(=O)N[C@@H](Cc1c[nH]c2ccccc12)C(=O)N[C@@H](C)C(=O)N[C@@H](CCCNC(=N)N)C(=O)N[C@@H](Cc1ccccc1)C(=O)N[C@@H](CC(C)C)C(=O)N1CCC[C@H]1C(=O)N[C@@H](CS)C(=O)NCC(N)=O)[C@@H](C)O (Ac-FITGHYWARFLPCG-NH2)
[18]
  IC50: < 0.076 µM
[19]
  IC50: 0.096 µM

## CC[C@H](C)[C@H](NC(=O)[C@H](Cc1ccccc1)NC(C)=O)C(=O)N[C@H](C(=O)NCC(=O)N[C@@H](Cc1c[nH]cn1)C(=O)N[C@@H](Cc1ccc(O)cc1)C(=O)N[C@@H](Cc1c[nH]c2ccccc12)C(=O)N[C@H](C(=O)N[C@@H](CCCNC(=N)N)C(=O)N[C@@H](Cc1ccccc1)C(=O)N[C@@H](CC(C)C)C(=O)N1CCC[C@H]1C(=O)N[C@@H](CS)C(=O)NCC(N)=O)C(C)C)[C@@H](C)O (Ac-FITGHYWVRFLPCG-NH2)
[1]
  IC50: < 0.076 µM
[3]
  IC50: < 0.076 µM

## CC[C@H](C)[C@H](NC(C)=O)C(=O)N[C@H](C(=O)NCC(=O)N[C@@H](Cc1c[nH]cn1)C(=O)N[C@@H](Cc1ccc(O)cc1)C(=O)N[C@@H](Cc1c[nH]c2ccccc12)C(N)=O)[C@@H](C)O (Ac-ITGHYW-NH2)
Human betaherpesvirus 6
  inhibition: 21%
[1]
  IC50: > 99 µM
[3]
  IC50: > 99 µM
Human betaherpesvirus 5 [5]
  inhibition: 2%

## Cc1cccc(C(c2cn(C3CCCC3)nc2-c2ccccc2)n2cccc(N3C[C@H](C(=O)NC45CCC(CC4)NC5=O)N(C)C3=O)c2=O)c1 (mixture of isomers)
[1]
  IC50: 27 µM
[3]
  IC50: 15 µM

## Cc1ccc(C(c2cn(C3CCCC3)nc2-c2ccccc2)n2cccc(N3C[C@H](C(=O)NC45CCC(CC4)NC5=O)N(C)C3=O)c2=O)cc1 (mixture of isomers)
[1]
  IC50: 5 µM
[3]
  IC50: 13 µM

## Cc1ccccc1C(c1cn(C2CCCC2)nc1-c1ccccc1)n1cccc(N2C[C@H](C(=O)NC34CCC(CC3)NC4=O)N(C)C2=O)c1=O (mixture of isomers)
[1]
  IC50: 24 µM
[3]
  IC50: 30 µM
